Experimental findings from ChEMBL document CHEMBL5329202, “New aryl-/heteroarylpiperazine derivatives of 1,7-dimethyl-8,9-diphenyl-4-azatricyclo[5.2.1.02,6]dec-8-ene-3,5,10-trione: Synthesis and preliminary studies of biological activities” (Bioorg Med Chem, 2023) are described below.

One test has as its system PC-3. Nature of the test: Antiproliferative activity against human PC-3 cells assessed as decrease in IL-6 level at IC50 measured after 72 hrs by ELISA assay relative to control. Set-up: scale not given: the % may be the effect or the level left. Format: functional. On the technique in general: In an ELISA, binding on a coated surface is turned into a signal by an enzyme label.

Test [1] addresses 5-hydroxytryptamine receptor 2A (Rattus norvegicus) (UniProt P14842). Nature of the test: Displacement of [3H]ketanserin from Sprague-Dawley rat 5-HT2A receptor measured after 60 mins by competitive binding assay.
Another test has as its system HMEC-1. The experiment in a line: Induction of apoptosis in human HMEC-1 cells assessed as increase in caspase-3/7 activity at IC50 incubated for 24 hrs by Glo assay relative to control. Format: functional.
For a further test, the system named is HaCaT. Nature of the test: Induction of apoptosis in human HaCaT cells assessed as late apoptotic cells at IC50 incubated for 72 hrs by Annexin V-FITC/PI staining based flow cytometric analysis relative to control. Format: functional.
The test system of the next test is SW480. Nature of the test: Antiproliferative activity against human SW480 cells assessed as decrease in IL-6 level at IC50 measured after 72 hrs by ELISA assay relative to control. Also noted: scale not given: the % may be the effect or the level left. Format: functional.
In test [2] the test system is SW-620. Nature of the test: Induction of apoptosis in human SW620 cells assessed as viable cells at IC50 incubated for 72 hrs by Annexin V-FITC/PI staining based flow cytometric analysis (reference value: 92.9 %). Format: functional. On the technique in general: Flow cytometry measures light scatter and fluorescence of single cells or particles in a stream.
In test [3] the test system is SW-620. The experiment in a line: Induction of apoptosis in human SW620 cells assessed as late apoptotic cells at IC50 incubated for 72 hrs by Annexin V-FITC/PI staining based flow cytometric analysis (reference value: 1.2 %). Format: functional.

Activity calls are given as the source filed them. No cut-off for these calls is given here.

Chain of 5-hydroxytryptamine receptor 2A (Rattus norvegicus) (P14842 whole entry): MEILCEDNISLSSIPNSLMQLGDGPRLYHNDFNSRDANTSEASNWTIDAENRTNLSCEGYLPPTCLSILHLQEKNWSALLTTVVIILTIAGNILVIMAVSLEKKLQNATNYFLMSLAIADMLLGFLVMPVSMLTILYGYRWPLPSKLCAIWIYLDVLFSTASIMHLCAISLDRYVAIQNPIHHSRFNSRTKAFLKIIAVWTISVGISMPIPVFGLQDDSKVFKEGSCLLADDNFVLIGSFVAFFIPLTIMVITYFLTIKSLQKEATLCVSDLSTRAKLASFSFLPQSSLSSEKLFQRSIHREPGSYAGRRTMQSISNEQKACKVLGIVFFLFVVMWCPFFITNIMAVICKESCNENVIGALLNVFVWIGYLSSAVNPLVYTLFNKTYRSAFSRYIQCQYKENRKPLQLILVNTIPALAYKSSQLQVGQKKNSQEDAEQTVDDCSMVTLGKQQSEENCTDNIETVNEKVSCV

As for `CC12C(=O)C(C)(C(c3ccccc3)=C1c1ccccc1)C1C(=O)N(CCCCN3CCN(c4cccc(Cl)c4)CC3)C(=O)C12` (centres undefined), in the test with PC-3, the Activity worked out at 51%.

Regarding `CC12C(=O)C(C)(C(c3ccccc3)=C1c1ccccc1)C1C(=O)N(CCCCN3CCN(c4ncccn4)CC3)C(=O)C12` (centres undefined), the result in test [1] was inactive.

As to `CC12C(=O)C(C)(C(c3ccccc3)=C1c1ccccc1)C1C(=O)N(CCCCN3CCN(c4ccccc4F)CC3)C(=O)C12` (centres undefined), the Activity in the test with HMEC-1 came to 13%; with HaCaT it was 12.3%.

As for `CC12C(=O)C(C)(C(c3ccccc3)=C1c1ccccc1)C1C(=O)N(CCCCN3CCN(c4ccccc4Cl)CC3)C(=O)C12` (centres undefined), the Activity with SW480 is 48%; with SW-620 [2], 89.9%; with SW-620 [3], 2.2%.

Regarding `COc1ccccc1N1CCN(CCCCN2C(=O)C3C(C2=O)C2(C)C(=O)C3(C)C(c3ccccc3)=C2c2ccccc2)CC1` (centres undefined), the figures for the Activity in the test on SW-620 [2] and with SW-620 [3] were 89.2% and 1.8%, respectively.
